What was measured:
morningglory = assay: Test A morningglory; format: in vivo, Ipomoea spp.; details: 0 to 10 scale where 0 is no effect and 10 is complete control
Method: Seeds of barnyardgrass (Echinochloa crus-galli), crabgrass (Digitaria spp.), morningglory (Ipomoea spp.), and velvetleaf (Abutilon theophrasti) were planted into a sandy loam soil and treated preemergence by soil drench with test chemicals formulated in a non-phytotoxic solvent mixture which includes a surfactant At the same time, these crop and weed species were also treated postemergence sprayed to runoff, with test chemicals formulated in the same manner.
Plants ranged in height from two to eighteen cm and were in the one to two leaf stage for the postemergence treatment. Treated plants and untreated controls were maintained in a greenhouse for approximately eleven days, after which all treated plants were compared to untreated controls and visually evaluated for injury. Plant response ratings, summarized in Table A, are based on a 0 to 10 scale where 0 is no effect and 10 is complete control.

giant foxtail = assay: Test C postemergence giant foxtail; format: in vivo, Setaria faberii; details: 0 to 100 scale, 0 no effect, 100 complete control
In short: (§1)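 Compounds in a non-phytotoxic solvent with surfactant were sprayed postemergence on greenhouse-grown plants in 60:40 sandy loam/potting mix. After about 14 to 21 days, visual ratings against untreated controls on a 0 (no effect) to 100 (complete control) scale.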

ivyleaf morningglory = assay: Test C postemergence ivyleaf morningglory; format: in vivo, Ipomoea hederacea; details: 0 to 100 scale, 0 no effect, 100 complete control
Method: (§2) Compounds evaluated in this test were formulated in a non-phytotoxic solvent mixture which included a surfactant and applied to plants that were grown for various periods of time before treatment (postemergence application). A mixture of sandy loam soil and greenhouse potting mix in a 60:40 ratio was used for the postemergence test.
(§3) Plantings of these crops and weed species were adjusted to produce plants of appropriate size for the postemergence test. All plant species were grown using normal greenhouse practices. Crop and weed species include arrowleaf sida (Sida rhombifolia), barnyardgrass (Echinochloa crus-galli), cocklebur (Xanthium strumarium), common ragweed (Ambrosia elatior), corn (Zea mays), cotton (Gossypium hirsutum), eastern black nightshade (Solanum ptycanthum), fall panicum (Panicum dichotomiflorum), field bindweed (Convolvulus arvensis), giant foxtail (Setaria faberii), hairy beggarticks (Bidens pilosa), ivyleaf morningglory (Ipomoea hederacea), johnsongrass (Sorghum halepense), ladysthumb smartweed (Polygonum persicaria), lambsquarters (Chenopodium album), large crabgrass (Digitaria sanguinalis), purple nutsedge (Cyperus rotundus), redroot pigweed (Amaranthus retroflexus), soybean (Glycine max), surinam grass (Brachiaria decumbens), velvetleaf (Abutilon theophrasti) and wild poinsettia (Euphorbia heterophylla).
(§4) Treated plants and untreated controls were maintained in a greenhouse for approximately 14, to 21 days, after which all treated plants were compared to untreated controls and visually evaluated. Plant response ratings, summarized in Table C, were based upon a 0 to 100 scale where 0 was no effect and 100 was complete control. A dash response (−) means no test result.

ladysthumb smartweed = assay: Test C postemergence ladysthumb smartweed; format: in vivo, Polygonum persicaria; details: 0 to 100 scale, 0 no effect, 100 complete control
Method: as §2, §3, §4

cotton = assay: Test C postemergence cotton; format: in vivo, Gossypium hirsutum; details: 0 to 100 scale, 0 no effect, 100 complete control
Method: as §2, §3, §4

large crabgrass = assay: Test C postemergence large crabgrass; format: in vivo, Digitaria sanguinalis; details: 0 to 100 scale, 0 no effect, 100 complete control
Method: as §2, §3, §4

common ragweed = assay: Test C postemergence common ragweed; format: in vivo, Ambrosia elatior; details: 0 to 100 scale, 0 no effect, 100 complete control
In short: as §1

fall panicum = assay: Test C postemergence fall panicum; format: in vivo, Panicum dichotomiflorum; details: 0 to 100 scale, 0 no effect, 100 complete control
Method: as §2, §3, §4

field bindweed = assay: Test C postemergence field bindweed; format: in vivo, Convolvulus arvensis; details: 0 to 100 scale, 0 no effect, 100 complete control
Method: as §2, §3, §4

Spanishneedles = assay: Test D Spanishneedles; format: in vivo, Bidens bipinnata; details: Rate 64 g/ha, Postemergence; 0 to 100 scale, 0 no injury, 100 complete control
tall mallow = assay: Test D tall mallow; format: in vivo, Malva sylvestris; details: Rate 64 g/ha, Postemergence; 0 to 100 scale, 0 no injury, 100 complete control
bermuda-grass = assay: Test D bermudagrass; format: in vivo, Cynodon dactylon; details: Rate 64 g/ha, Postemergence; 0 to 100 scale, 0 no injury, 100 complete control
dallisgrass = assay: Test D dallisgrass; format: in vivo, Paspalum dilatatum; details: Rate 64 g/ha, Postemergence; 0 to 100 scale, 0 no injury, 100 complete control
purple nutsedge = assay: Test D purple nutsedge; format: in vivo, Cyperus rotundus; details: Rate 64 g/ha, Postemergence; 0 to 100 scale, 0 no injury, 100 complete control
guineagrass = assay: Test D guineagrass; format: in vivo, Panicum maximum; details: Rate 64 g/ha, Postemergence; 0 to 100 scale, 0 no injury, 100 complete control
sandbur = assay: Test D sandbur; format: in vivo, Cenchrus echinatus; details: Rate 64 g/ha, Postemergence; 0 to 100 scale, 0 no injury, 100 complete control
Green foxtail = assay: Test D green foxtail; format: in vivo; details: Rate 64 g/ha, Postemergence; 0 to 100 scale, 0 no injury, 100 complete control
itchgrass = assay: Test D itchgrass; format: in vivo, Rottboellia exaltata; details: Rate 64 g/ha, Postemergence; 0 to 100 scale, 0 no injury, 100 complete control

| Compound | Plant response rating, Morningglory (morningglory; Postemergence, Rate 1000 g/ha) | Plant response rating, Morningglory (morningglory; Pre-emergence, Rate 2000 g/ha) | Plant response rating, Giant foxtail (giant foxtail; Rate 140 g/ha) | Plant response rating, Giant foxtail (giant foxtail; Rate 280 g/ha) | Plant response rating, Giant foxtail (giant foxtail; Rate 560 g/ha) | Plant response rating, Giant foxtail (giant foxtail; Rate 1120 g/ha) | Plant response rating I. morningglory (ivyleaf morningglory; Rate 140 g/ha) | Plant response rating I. morningglory (ivyleaf morningglory; Rate 280 g/ha) | Plant response rating I. morningglory (ivyleaf morningglory; Rate 560 g/ha) | Plant response rating I. morningglory (ivyleaf morningglory; Rate 1120 g/ha) | Plant response rating Ladysthumb (ladysthumb smartweed; Rate 140 g/ha) | Plant response rating Ladysthumb (ladysthumb smartweed; Rate 280 g/ha) | Plant response rating Ladysthumb (ladysthumb smartweed; Rate 560 g/ha) | Plant response rating Cotton (cotton; Rate 140 g/ha) | Plant response rating Cotton (cotton; Rate 280 g/ha) | Plant response rating Cotton (cotton; Rate 560 g/ha) | Plant response rating Cotton (cotton; Rate 1120 g/ha) | Plant response rating, Large crabgrass (large crabgrass; Rate 140 g/ha) | Plant response rating, Large crabgrass (large crabgrass; Rate 280 g/ha) | Plant response rating, Large crabgrass (large crabgrass; Rate 560 g/ha) | also measured |
| --- | --- | --- | --- | --- | --- | --- | --- | --- | --- | --- | --- | --- | --- | --- | --- | --- | --- | --- | --- | --- | --- |
| CCN(CC)C(=O)n1oc(=O)n(-c2ccc(OC)cc2)c1=O [Compound 1] | 0 | 0 | – | – | – | – | – | – | – | – | – | – | – | – | – | – | – | – | – | – | – |
| Cc1ccccc1-n1c(=O)on(C(=O)N(C2=CCOCC2)C(C)C)c1=O [Compound 10] | 0 | 1 | – | – | – | – | – | – | – | – | – | – | – | – | – | – | – | – | – | – | – |
| CC(C)Oc1cc(-n2c(=O)on(C(=O)N(c3ccc(F)cc3)C(C)C)c2=O)c(Cl)cc1Cl [Compound 43] | 0 | 0 | – | – | – | – | – | – | – | – | – | – | – | – | – | – | – | – | – | – | – |
| CC(C)N(C(=O)n1oc(=O)n(Cc2cccs2)c1=O)c1ccc(F)cc1 [Compound 80] | – | – | 0 | 0 | 0 | 20 | 0 | 10 | 30 | 50 | 10 | 10 | 70 | 20 | 35 | 40 | 40 | 0 | 0 | 10 | Plant response rating Ladysthumb (ladysthumb smartweed; Rate 1120 g/ha): 70; Plant response rating, Large crabgrass (large crabgrass; Rate 1120 g/ha): 10; Plant response rating Common ragweed (common ragweed; Rate 140 g/ha): 0; Plant response rating Common ragweed (common ragweed; Rate 280 g/ha): 0; Plant response rating Common ragweed (common ragweed; Rate 560 g/ha): 5; Plant response rating Common ragweed (common ragweed; Rate 1120 g/ha): 5; Plant response rating Fall panicum (fall panicum; Rate 140 g/ha): 0; Plant response rating Fall panicum (fall panicum; Rate 280 g/ha): 0; Plant response rating Fall panicum (fall panicum; Rate 560 g/ha): 0; Plant response rating Fall panicum (fall panicum; Rate 1120 g/ha): 10; Plant response rating Field bindweed (field bindweed; Rate 140 g/ha): 0; Plant response rating Field bindweed (field bindweed; Rate 280 g/ha): 0; Plant response rating Field bindweed (field bindweed; Rate 560 g/ha): 0; Plant response rating Field bindweed (field bindweed; Rate 1120 g/ha): 0 |
| C=CCn1c(=O)on(C(=O)N(c2ccccc2)C(C)C)c1=O [Compound 93] | – | – | 10 | 55 | 80 | 95 | 5 | 10 | 10 | 70 | 0 | 0 | 80 | 15 | 30 | 70 | 85 | 0 | 30 | 50 | Plant response rating, Large crabgrass (large crabgrass; Rate 1120 g/ha): 95; Plant response rating Common ragweed (common ragweed; Rate 140 g/ha): 5; Plant response rating Common ragweed (common ragweed; Rate 280 g/ha): 10; Plant response rating Common ragweed (common ragweed; Rate 560 g/ha): 10; Plant response rating Common ragweed (common ragweed; Rate 1120 g/ha): 20; Plant response rating Fall panicum (fall panicum; Rate 140 g/ha): 0; Plant response rating Fall panicum (fall panicum; Rate 280 g/ha): 80; Plant response rating Fall panicum (fall panicum; Rate 560 g/ha): 90; Plant response rating Fall panicum (fall panicum; Rate 1120 g/ha): 90; Plant response rating Field bindweed (field bindweed; Rate 140 g/ha): 0; Plant response rating Field bindweed (field bindweed; Rate 280 g/ha): 0; Plant response rating Field bindweed (field bindweed; Rate 560 g/ha): 0; Plant response rating Field bindweed (field bindweed; Rate 1120 g/ha): 50 |
| CC(C)N(C(=O)n1oc(=O)n(C2CCCCC2C(F)(F)F)c1=O)c1ccc(F)cc1 (centres unmarked) [Compound 99] | 2 | 2 | – | – | – | – | – | – | – | – | – | – | – | – | – | – | – | – | – | – | – |
| CC(C)N(C(=O)n1oc(=O)n(Cc2cccs2)c1=O)c1ccccc1 [Compound 103] | – | – | 0 | 0 | 0 | 40 | 0 | 0 | 0 | 10 | 0 | 0 | 10 | 0 | 20 | 40 | 80 | 0 | 0 | 0 | Plant response rating Ladysthumb (ladysthumb smartweed; Rate 1120 g/ha): 10; Plant response rating, Large crabgrass (large crabgrass; Rate 1120 g/ha): 10; Plant response rating Common ragweed (common ragweed; Rate 140 g/ha): 0; Plant response rating Common ragweed (common ragweed; Rate 280 g/ha): 0; Plant response rating Common ragweed (common ragweed; Rate 560 g/ha): 0; Plant response rating Common ragweed (common ragweed; Rate 1120 g/ha): 5; Plant response rating Fall panicum (fall panicum; Rate 140 g/ha): 0; Plant response rating Fall panicum (fall panicum; Rate 280 g/ha): 0; Plant response rating Fall panicum (fall panicum; Rate 560 g/ha): 0; Plant response rating Fall panicum (fall panicum; Rate 1120 g/ha): 30; Plant response rating Field bindweed (field bindweed; Rate 140 g/ha): 0; Plant response rating Field bindweed (field bindweed; Rate 280 g/ha): 0; Plant response rating Field bindweed (field bindweed; Rate 560 g/ha): 0; Plant response rating Field bindweed (field bindweed; Rate 1120 g/ha): 0 |
| CC(C)Cn1c(=O)on(C(=O)N(c2ccc(F)cc2)C(C)C)c1=O [Compound 169] | – | – | – | – | – | – | – | – | – | – | – | – | – | – | – | – | – | – | – | – | Spanishneedles plant response rating (Spanishneedles): 0; Tall Mallow plant response rating (tall mallow): 0; Plant response rating, Bermudagrass (bermuda-grass): 100; Plant response rating, Dallisgrass (dallisgrass): 90; Purple nutsedge plant response rating (purple nutsedge): 0; Guineagrass plant response rating (guineagrass): 0; Plant response rating, Guineagrass (guineagrass): 100; Sandbur plant response rating (sandbur): 40; Green foxtail plant response rating (Green foxtail): 100; Plant response rating, Itchgrass (itchgrass): 0 |

Reference: patent US6737383B1, “Herbicidal oxadiazolidines” (priority 1999, dated 2004)
